# Target: T1, pyruvate kinase (PK-1 from rabbit muscle) (Oryctolagus cuniculus, UniProt P11974)
# T1 construct: gene PKM; purified PK-1 from rabbit muscle
# Experiment: enzyme kinetics, ATP production by luminescence (CellTiter-Glo), competitive model fit
# Format: biochemical
# T1 sequence (P11974 2-531): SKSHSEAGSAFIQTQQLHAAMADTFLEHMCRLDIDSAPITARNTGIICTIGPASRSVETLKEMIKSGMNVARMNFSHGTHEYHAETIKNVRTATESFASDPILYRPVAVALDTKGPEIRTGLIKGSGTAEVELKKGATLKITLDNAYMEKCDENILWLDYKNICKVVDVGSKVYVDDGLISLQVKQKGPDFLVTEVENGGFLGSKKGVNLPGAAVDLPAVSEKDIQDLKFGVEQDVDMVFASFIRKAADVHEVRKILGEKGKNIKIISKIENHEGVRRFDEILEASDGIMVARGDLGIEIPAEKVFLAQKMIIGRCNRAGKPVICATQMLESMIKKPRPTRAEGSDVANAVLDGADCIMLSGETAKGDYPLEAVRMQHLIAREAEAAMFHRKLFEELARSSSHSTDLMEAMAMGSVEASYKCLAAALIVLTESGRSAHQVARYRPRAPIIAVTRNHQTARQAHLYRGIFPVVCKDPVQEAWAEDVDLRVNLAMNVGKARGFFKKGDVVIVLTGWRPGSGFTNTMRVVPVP
smiles,measurement,value
CCOC(=O)C(C)=O [ethyl pyruvate],Ki,3 ± 0.29 mM
